Source: ChEMBL document CHEMBL1201862, “PubChem BioAssay data set” (2004)
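Following 48 hours of exposure in 96-well plates, responses at five concentrations were used to interpolate endpoints linearly. Here, GI50 denotes the concentration required for 50% inhibition of growth.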 Active and inactive are the calls of the source. Cut-off read from the data, not from the text of the source: active = GI50 up to about 1.1 µM and inactive = higher.

Experiments:
Experiment in all cases: NCI anticancer screen, dose series, 48 h
DLD-1 = system: DLD-1
HL-60 = system: HL-60
DMS-273 = system: DMS-273
IGROV-1 = system: IGROV-1
SF-295 = system: SF-295
HOP-18 = system: HOP-18
NCI-H23 = system: NCI-H23
OVCAR-3 = system: OVCAR-3
HCT-15 = system: HCT-15
COLO 205 = system: COLO 205
HCT-116 = system: HCT-116
HCC 2998 = system: HCC 2998
SK-MEL-5 = system: SK-MEL-5
TK-10 = system: TK-10
RXF 393 = system: RXF 393
OVCAR-8 = system: OVCAR-8
ACHN = system: ACHN
CCRF-CEM = system: CCRF-CEM
DMS-114 = system: DMS-114
LXFL 529 = system: LXFL 529
SF-539 = system: SF-539
RPMI-8226 = system: RPMI-8226
UACC-257 = system: UACC-257
MOLT-4 = system: MOLT-4
NCI-H460 = system: NCI-H460
M14 = system: M14
SNB-78 = system: SNB-78
A549 = system: A549
HOP-92 = system: HOP-92
U-251 = system: U-251
EKVX = system: EKVX
UACC-62 = system: UACC-62
NCI-H226 = system: NCI-H226
M19-MEL = system: M19-MEL
RXF 631 = system: RXF 631
HT-29 = system: HT-29
LOX IMVI = system: LOX IMVI
K562 = system: K562
SK-MEL-28 = system: SK-MEL-28
CAKI-1 = system: CAKI-1
SW-620 = system: SW-620
Malme-3M = system: Malme-3M
786-0 = system: 786-0
SN12C = system: SN12C
KM12 = system: KM12
SK-OV-3 = system: SK-OV-3
SNB-75 = system: SNB-75
UO-31 = system: UO-31
SK-MEL-2 = system: SK-MEL-2
NCI/ADR-RES = system: NCI/ADR-RES
Hs-578T = system: Hs-578T
MDA-MB-435 = system: MDA-MB-435
KM-20L2 = system: KM-20L2
OVCAR-5 = system: OVCAR-5
SR = system: SR
NCI-H522 = system: NCI-H522
HOP-62 = system: HOP-62
DU-145 = system: DU-145
T47D = system: T47D
MCF7 = system: MCF7
MDA-MB-231 = system: MDA-MB-231
MDA-N = system: MDA-N
PC-3 = system: PC-3
OVCAR-4 = system: OVCAR-4
SF-268 = system: SF-268
A498 = system: A498
XF498 = system: XF498
SNB-19 = system: SNB-19

With `Oc1cccc(-c2cccc(O)n2)n1` the GI50 (DLD-1) was > 100 µM (inactive), the GI50 (HL-60) was > 100 µM (inactive) and the GI50 (DMS-273) was > 100 µM (inactive). The GI50 (IGROV-1) was > 100 µM (inactive), the GI50 (SF-295) was > 100 µM (inactive) and the GI50 (HOP-18) was > 100 µM (inactive). For the same molecule, the GI50 (NCI-H23) was > 100 µM (inactive), the GI50 (OVCAR-3) was > 100 µM (inactive) and the GI50 (HCT-15) was > 100 µM. For the same molecule, the GI50 (COLO 205) was > 100 µM (inactive), the GI50 (HCT-116) was > 100 µM (inactive) and the GI50 (HCC 2998) was > 100 µM (inactive). The GI50 (SK-MEL-5) was > 100 µM (inactive), the GI50 (TK-10) was > 100 µM (inactive) and the GI50 (RXF 393) was > 100 µM (inactive). The GI50 (OVCAR-8) was > 100 µM (inactive), the GI50 (ACHN) was > 100 µM (inactive) and the GI50 (CCRF-CEM) was > 100 µM (inactive). For the same molecule, the GI50 (DMS-114) was > 100 µM (inactive), the GI50 (LXFL 529) was > 100 µM (inactive) and the GI50 (SF-539) was > 100 µM (inactive). The GI50 (RPMI-8226) was > 100 µM (inactive), the GI50 (UACC-257) was > 100 µM (inactive) and the GI50 (MOLT-4) was > 100 µM (inactive). The GI50 (NCI-H460) was > 100 µM (inactive), the GI50 (M14) was > 100 µM (inactive) and the GI50 (SNB-78) was > 100 µM (inactive). The GI50 (A549) was > 100 µM (inactive), the GI50 (HOP-92) was 26.3 µM (inactive) and the GI50 (U-251) was > 100 µM (inactive). For the same molecule, the GI50 (EKVX) was > 100 µM (inactive), the GI50 (UACC-62) was > 100 µM (inactive) and the GI50 (NCI-H226) was > 100 µM (inactive). For the same molecule, the GI50 (M19-MEL) was > 100 µM (inactive), the GI50 (RXF 631) was > 100 µM (inactive) and the GI50 (HT-29) was > 100 µM (inactive). The GI50 (LOX IMVI) was > 100 µM (inactive), the GI50 (K562) was > 100 µM (inactive) and the GI50 (SK-MEL-28) was > 100 µM (inactive). For the same molecule, the GI50 (CAKI-1) was > 100 µM (inactive), the GI50 (SW-620) was > 100 µM (inactive) and the GI50 (Malme-3M) was > 100 µM (inactive). The GI50 (786-0) was > 100 µM (inactive), the GI50 (SN12C) was > 100 µM (inactive) and the GI50 (KM12) was > 100 µM (inactive). The GI50 (SK-OV-3) was > 100 µM (inactive), the GI50 (SNB-75) was > 100 µM (inactive) and the GI50 (UO-31) was > 100 µM (inactive).

In the case of `O=C(NC(=O)c1ccccc1[N+](=O)[O-])Nc1ccc(Oc2ncc(Cl)cn2)c(C(F)(F)F)c1`, the GI50 (SK-MEL-2) is reported as < 10 nM (active), the GI50 (DLD-1) is reported as < 0.0132 µM (active) and the GI50 (HL-60) is reported as < 0.01 µM (active). The GI50 (NCI/ADR-RES) was < 10 nM (active), the GI50 (Hs-578T) was < 10 nM (active) and the GI50 (MDA-MB-435) was < 10 nM (active). For the same molecule, the GI50 (DMS-273) was < 0.01 µM (active), the GI50 (IGROV-1) was 0.0213 µM (active) and the GI50 (SF-295) was < 0.01 µM (active). The GI50 (HOP-18) was 53.1 µM (inactive), the GI50 (NCI-H23) was 0.0257 µM (active) and the GI50 (OVCAR-3) was < 0.01 µM (active). The GI50 (KM-20L2) was < 12.5 nM (active), the GI50 (HCT-15) was < 0.0126 µM and the GI50 (OVCAR-5) was 11.9 nM (active). The GI50 (COLO 205) was 0.0184 µM (active), the GI50 (HCT-116) was 0.0124 µM (active) and the GI50 (HCC 2998) was 0.0209 µM (active). The GI50 (SK-MEL-5) was < 0.01 µM (active), the GI50 (TK-10) was 20.1 µM (inactive) and the GI50 (RXF 393) was < 0.01 µM (active). The GI50 (OVCAR-8) was 0.0236 µM (active), the GI50 (ACHN) was 0.0789 µM (active) and the GI50 (CCRF-CEM) was 0.0154 µM (active). The GI50 (DMS-114) was < 0.01 µM (active), the GI50 (LXFL 529) was < 0.01 µM (active) and the GI50 (SF-539) was 0.0109 µM (active). The GI50 (RPMI-8226) was 0.0208 µM (active), the GI50 (UACC-257) was < 0.01 µM (active) and the GI50 (MOLT-4) was 0.047 µM (active). For the same molecule, the GI50 (NCI-H460) was < 0.01 µM (active), the GI50 (SR) was 116 nM (active) and the GI50 (NCI-H522) was < 10 nM (active). The GI50 (HOP-62) was 18.1 nM (active), the GI50 (DU-145) was 36.6 nM (active) and the GI50 (M14) was < 0.0115 µM (active). The GI50 (SNB-78) was < 0.01 µM (active), the GI50 (A549) was 0.0183 µM (active) and the GI50 (HOP-92) was < 0.01 µM (active). The GI50 (T47D) was 22.1 µM (inactive), the GI50 (MCF7) was < 10 nM (active) and the GI50 (U-251) was < 0.0121 µM (active). For the same molecule, the GI50 (MDA-MB-231) was 37.1 nM (active), the GI50 (EKVX) was 0.126 µM (active) and the GI50 (MDA-N) was < 10 nM (active). For the same molecule, the GI50 (UACC-62) was < 0.01 µM (active), the GI50 (NCI-H226) was 0.0191 µM (active) and the GI50 (M19-MEL) was < 0.0171 µM (active). The GI50 (PC-3) was < 10 nM (active), the GI50 (OVCAR-4) was 1.6 µM (inactive) and the GI50 (HT-29) was 0.0105 µM (active). The GI50 (SF-268) was 73.3 nM (active), the GI50 (LOX IMVI) was 0.0262 µM (active) and the GI50 (K562) was < 0.0336 µM (active). The GI50 (SK-MEL-28) was < 0.0104 µM (active), the GI50 (CAKI-1) was < 0.01 µM (active) and the GI50 (SW-620) was < 0.01 µM (active). The GI50 (Malme-3M) was < 0.01 µM (active), the GI50 (786-0) was < 0.01 µM (active) and the GI50 (SN12C) was 0.0873 µM (active). The GI50 (A498) was < 10 nM (active), the GI50 (KM12) was < 0.01 µM (active) and the GI50 (SK-OV-3) was < 0.01 µM (active). For the same molecule, the GI50 (XF498) was 10.3 nM (active), the GI50 (SNB-75) was < 0.01 µM (active) and the GI50 (UO-31) was 0.0281 µM (active). The GI50 (SNB-19) was 21.8 nM (active).
